Like-named read-outs stand apart in the source and are kept apart here.
Columns and labels:
[1] = molecular target: RICK (Homo sapiens, UniProt O43353); test: General kinase assay protocol (33P-ATP, MBP substrate, filter plate): RICK; type: biochemical; settings: inhibition at concentration 10 μM; read-out: Inhibitory effect on Target RICK
Description: (§1) General Assay Protocol for all Kinases
(§2) (For UL97 a special UL97 kinase assay was used as described below.)

[2] = molecular target: T1, viral kinase pUL-97 (Human cytomegalovirus, UniProt P16788); test: UL97 kinase assay on Immobilon plate; type: biochemical
T1 construct: The pUL-97 gene was cloned into a baculovirus vector; GST (glutathione S-transferase) (N); made in house; host or cells: Sf9 insect cells, baculovirus
Procedure, shortened: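 Compound was titrated into a radiometric reaction of Sf9-expressed GST-UL97 kinase, incubated 1 h at 30 °C in Tris-HCl pH 7.5/MnCl2/DTT buffer before EDTA stop. MBP substrate and ATP (3 μM in the added assay buffer) were supplied with γ-[33P]ATP. Labelled product bound to Immobilon filter was washed and counted by scintillation.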

[3] = molecular target: SRPK1 (Homo sapiens, UniProt Q96SB4); test: General kinase assay protocol (33P-ATP, MBP substrate, filter plate): SRPK1; type: biochemical; settings: inhibition at concentration 10 μM; read-out: Inhibitory effect on Target SRPK1
Experimental: as §1, §2
(§3) Final Assay Concentrations:
(§4) • 1) Add 8 μl 50 μM MBP in Reaction Buffer to each well of Assay Plate • 2) Add 10 μl 500 mM EDTA in H2O to C− wells • 3) Add 8 μl 62.5 μCi/ml Adenosine 5′-[γ-^33P]triphosphate+5 μM ATP in Reaction Buffer to each well • 4) Add 8 μl 5 fold concentrated inhibitor in 5% DMSO in Reaction Buffer to each well except to C− and C+ wells • 5) Add 8 μl 5% DMSO in Reaction Buffer to C− and C+wells • 6) Add 8 μl 5 fold concentrated kinase in Reaction Buffer to each well • 7) Incubate 1 hr at room temperature • 8) Add 10 μl 50 mM EDTA in H2O to each well except to C− wells • 9) Prepare MAPH plates by adding 200 μl 0.75% H3PO4 to each well • 10) Exhaust 0.75% H3PO4 using Millipore vacuum station • 11) Add 60 μl 0.75% H3PO4 to each well of MAPH Filter Plate • 12) Transfer 30 μl sample per well from Assay Plate to corresponding well of MAPH Filter Plate • 13) Incubate 30 min at room temperature • 14) Wash each well of MAPH Filter Plates 3× with 200 μl 0.75% H3PO4 using Millipore vacuum station • 15) Add 20 μl Szintilation Liquid to each well of MAPH Filter Plate • 16) Seal MAPH Filter Plate • 17) Store MAPH Filter Plate 30 min in darkness • 18) Quantify radioactivity

[4] = molecular target: CDK9 (Homo sapiens, UniProt P50750); test: General kinase assay protocol (33P-ATP, MBP substrate, filter plate): CDK9; type: biochemical; settings: inhibition at concentration 10 μM; read-out: Inhibitory effect on Target CDK9
Experimental: as §1, §2, §3, §4

[5] = test system: HCMV strain AD169; test: HCMV replication assay (reporter gene) in human foreskin fibroblasts; type: cell-based, human cytomegalovirus; settings: Human betaherpesvirus 5; HCMV strain AD169 in HFF cells; read-out: IC50 in inhibiting replication of HCMV
Experimental: To examine the effect of the pyrazine derivatives on HCMV replication, HCMV infections were performed in a cellular system.
Human foreskin fibroblasts (HFFs) were grown to subconfluency in 12 well plates and infected with 0.25 tissue culture infectious doses of HCMV AD-169 carrying a reporter gene (HCMV based antiviral assay). Pyrazine derivatives (stocks in DMSO (Dimethylsulfoxide)) were diluted in culture medium to the concentrations indicated and added to the cells immediately after virus adsorption. The success of infection (reporter gene expressing cells) and the lack of cytotoxicity of the compound (confluent cell layer) was monitored by microscopy. After seven days, cell layers were harvested, lysed and subjected to the automated fluorometry measurement of reporter gene activity. Each panel refers to a determination in quadruplicate (infection in duplicate, lysate preparation and measurement in duplicate).

[6] = inhibition of UL 97 kinase activity, class by IC50 / % inhibition at 10 or 100 μM, read-out: Activity Class [A, B, C]
[7] = inhibition of UL 97 kinase activity, class by IC50 / % inhibition at 10 μM or 100 μM, read-out: Activity Class [A, B, C]

CDK9, sequence (P50750 whole entry, species assumed): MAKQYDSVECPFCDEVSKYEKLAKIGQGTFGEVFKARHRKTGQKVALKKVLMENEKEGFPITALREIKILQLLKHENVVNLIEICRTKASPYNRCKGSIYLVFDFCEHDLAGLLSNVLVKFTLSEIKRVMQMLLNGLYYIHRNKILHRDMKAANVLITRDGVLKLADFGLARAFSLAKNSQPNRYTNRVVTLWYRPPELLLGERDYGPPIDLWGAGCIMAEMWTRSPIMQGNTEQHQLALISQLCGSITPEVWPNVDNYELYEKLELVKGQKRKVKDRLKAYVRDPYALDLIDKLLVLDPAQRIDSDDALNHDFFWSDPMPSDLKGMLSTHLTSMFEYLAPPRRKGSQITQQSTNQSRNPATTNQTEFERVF
CDK9, sequence (O60563 whole entry partner, species assumed): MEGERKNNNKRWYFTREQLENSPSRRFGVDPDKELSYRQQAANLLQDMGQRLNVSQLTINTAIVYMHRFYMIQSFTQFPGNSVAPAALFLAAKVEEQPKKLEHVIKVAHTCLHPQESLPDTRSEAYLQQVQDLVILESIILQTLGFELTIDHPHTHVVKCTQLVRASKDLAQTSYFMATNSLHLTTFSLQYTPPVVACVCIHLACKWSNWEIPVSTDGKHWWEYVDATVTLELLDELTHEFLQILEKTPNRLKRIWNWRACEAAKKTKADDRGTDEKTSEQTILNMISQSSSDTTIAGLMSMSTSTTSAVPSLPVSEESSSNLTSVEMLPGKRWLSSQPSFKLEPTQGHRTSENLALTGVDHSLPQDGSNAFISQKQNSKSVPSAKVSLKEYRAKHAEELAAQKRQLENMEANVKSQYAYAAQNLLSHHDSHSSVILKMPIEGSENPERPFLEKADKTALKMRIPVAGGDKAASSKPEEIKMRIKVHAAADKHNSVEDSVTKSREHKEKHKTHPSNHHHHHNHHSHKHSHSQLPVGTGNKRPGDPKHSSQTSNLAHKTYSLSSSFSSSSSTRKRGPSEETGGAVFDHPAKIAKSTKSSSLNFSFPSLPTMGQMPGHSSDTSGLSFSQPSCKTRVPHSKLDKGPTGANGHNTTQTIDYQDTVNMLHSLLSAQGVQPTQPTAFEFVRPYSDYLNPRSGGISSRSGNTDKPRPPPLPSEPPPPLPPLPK
T1 sequence (P16788 whole entry): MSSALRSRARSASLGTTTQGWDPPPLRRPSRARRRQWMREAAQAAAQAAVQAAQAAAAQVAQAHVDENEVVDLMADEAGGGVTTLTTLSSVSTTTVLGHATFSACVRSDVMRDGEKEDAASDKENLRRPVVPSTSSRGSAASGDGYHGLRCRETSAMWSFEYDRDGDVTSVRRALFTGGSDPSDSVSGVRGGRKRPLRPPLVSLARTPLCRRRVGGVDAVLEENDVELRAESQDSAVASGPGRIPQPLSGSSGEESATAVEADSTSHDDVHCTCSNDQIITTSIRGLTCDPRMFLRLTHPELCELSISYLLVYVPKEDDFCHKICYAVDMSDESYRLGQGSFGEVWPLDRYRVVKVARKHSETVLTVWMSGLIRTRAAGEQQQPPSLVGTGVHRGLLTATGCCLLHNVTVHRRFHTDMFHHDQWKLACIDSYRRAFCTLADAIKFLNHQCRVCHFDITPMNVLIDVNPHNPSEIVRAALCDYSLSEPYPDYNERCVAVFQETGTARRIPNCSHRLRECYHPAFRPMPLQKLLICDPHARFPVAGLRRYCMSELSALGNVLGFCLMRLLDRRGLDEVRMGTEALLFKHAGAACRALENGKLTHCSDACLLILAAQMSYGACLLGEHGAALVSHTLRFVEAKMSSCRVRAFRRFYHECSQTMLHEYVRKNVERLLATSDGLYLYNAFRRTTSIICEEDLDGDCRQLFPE
RICK, sequence (O43353 whole entry, species assumed): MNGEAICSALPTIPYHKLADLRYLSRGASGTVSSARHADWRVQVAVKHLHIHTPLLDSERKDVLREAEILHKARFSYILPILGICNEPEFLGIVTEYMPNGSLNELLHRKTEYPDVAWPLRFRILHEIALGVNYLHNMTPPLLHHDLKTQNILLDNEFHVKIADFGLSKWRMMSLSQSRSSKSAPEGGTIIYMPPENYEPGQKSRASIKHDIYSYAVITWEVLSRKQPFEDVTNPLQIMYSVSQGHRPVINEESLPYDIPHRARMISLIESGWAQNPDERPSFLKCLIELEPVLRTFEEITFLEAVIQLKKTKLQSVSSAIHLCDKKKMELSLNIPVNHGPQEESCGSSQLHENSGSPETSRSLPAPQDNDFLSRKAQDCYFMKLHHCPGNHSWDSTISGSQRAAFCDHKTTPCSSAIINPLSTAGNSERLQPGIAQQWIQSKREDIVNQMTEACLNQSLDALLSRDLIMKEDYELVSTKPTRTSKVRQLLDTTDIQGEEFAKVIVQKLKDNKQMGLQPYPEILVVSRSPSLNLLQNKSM
SRPK1, sequence (Q96SB4 whole entry, species assumed): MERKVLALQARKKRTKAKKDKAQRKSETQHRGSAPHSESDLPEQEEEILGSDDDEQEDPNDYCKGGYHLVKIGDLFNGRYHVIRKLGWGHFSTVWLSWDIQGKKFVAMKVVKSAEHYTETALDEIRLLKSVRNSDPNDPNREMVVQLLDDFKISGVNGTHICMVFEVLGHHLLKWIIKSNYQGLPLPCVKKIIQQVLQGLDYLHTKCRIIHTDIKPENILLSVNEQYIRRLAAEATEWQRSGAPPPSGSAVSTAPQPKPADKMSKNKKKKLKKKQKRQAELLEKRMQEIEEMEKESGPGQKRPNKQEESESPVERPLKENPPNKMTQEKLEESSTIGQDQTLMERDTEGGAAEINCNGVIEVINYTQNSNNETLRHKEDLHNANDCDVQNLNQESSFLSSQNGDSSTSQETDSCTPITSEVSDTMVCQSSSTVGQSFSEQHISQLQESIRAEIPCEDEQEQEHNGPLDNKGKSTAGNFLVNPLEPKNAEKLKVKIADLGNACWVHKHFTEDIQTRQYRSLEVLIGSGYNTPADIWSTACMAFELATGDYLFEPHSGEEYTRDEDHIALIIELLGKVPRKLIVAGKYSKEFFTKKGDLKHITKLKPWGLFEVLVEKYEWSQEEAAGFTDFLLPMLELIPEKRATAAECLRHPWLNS

| SMILES | inhibition at 10 µM [1] [%] | other results |
| --- | --- | --- |
| Oc1cccc(-c2cncc(Nc3ccc(F)c(Cl)c3)n2)c1 [compound 417] | > 50 |  |
| CC(=O)Nc1ccc(-c2cncc(Nc3ccccc3)n2)cc1 [Comp. 401] |  | inhibition at 10 µM [3]: > 50% |
| Oc1ccc(-c2cncc(Nc3ccccc3)n2)cc1 [compound 386] | > 75 |  |
| CN(C)CCNC(=O)c1cccc(-c2cncc(Nc3ccc(Cl)cc3)n2)c1 [Comp. 381] | > 50 | inhibition at 10 µM [4]: > 50% |
| COc1cc(Nc2cncc(-c3cccc(O)c3)n2)cc(OC)c1OC [compound 423] | > 50 |  |
| OCc1ccccc1-c1cncc(Nc2ccc(Cl)cc2)n1 [compound 420] | > 50 |  |
| Nc1ncc(-c2ccc(O)cc2)nc1Nc1ccc2[nH]ccc2c1 [compound 428] | > 50 |  |
| COc1cc(Nc2cncc(-c3ccc4ccccc4c3)n2)cc(OC)c1OC [compound 402] | > 75 |  |
| CN(C)CCNC(=O)c1cccc(-c2cncc(Nc3ccc(C#N)c(Cl)c3)n2)c1 [Comp. 22, 3-[6-(3-Chloro-4-cyano-phenylamino)-pyrazin-2-yl]-N-(2-dimethylamino-ethyl)-benzamide] |  | IC50 [2]: < 1 µM; inhibition at 10 µM [3]: > 75% |
| Nc1cccc(-c2cncc(Nc3ccc(Cl)cc3)n2)c1 [compound 380] | > 50 |  |
| CC(=O)Nc1cccc(-c2cncc(Nc3ccc4c(c3)OC(F)(F)C(F)(F)O4)n2)c1 [compound 403] |  | inhibition at 10 µM [4]: > 50% |
| COc1cccc(-c2cnc(N)c(Nc3ccc4[nH]ccc4c3)n2)c1 [compound 432] | > 75 |  |
| CC(=O)Nc1ccc(-c2cncc(Nc3ccc(Cl)cc3)n2)cc1 [compound 397] |  | inhibition at 10 µM [4]: > 50% |
| COc1cc(-c2cncc(Nc3ccc(F)c(Cl)c3)n2)cc(OC)c1OC [compound 382] | > 50 |  |
| CN(C)c1cccc(-c2cncc(Nc3cccc(C#N)c3)n2)c1 [compound 391] | > 50 |  |
| Nc1nc(O)c2ncn(COC(CO)CO)c2n1 [ganciclovir] |  | IC50 [5]: 3 to 4 µM |
| Oc1ccc(-c2cncc(Nc3cccc(C(F)(F)F)c3)n2)cc1 [compound 29, 4-[6-(3-Trifluoromethyl-phenylamino)-pyrazin-2-yl]-phenol] | > 50 | IC50 [2, 6]: < 1 µM |
| Cc1ccc(N2CCN(c3cncc(-c4ccc(CO)cc4)n3)CC2)c(C)c1 [compound 321, {4-[4-(2,4-Dimethyl-phenyl)-3,4,5,6-tetrahydro-2H-[1,2′]bipyrazinyl-6′-yl]-phenyl}-methanol] |  | IC50 [2, 7]: 10 to 100 µM |
| CN(C)c1ccc(-c2cncc(N3CCN(c4ccccc4F)CC3)n2)cc1 [compound 195, {4-[4-(2-Fluoro-phenyl)-3,4,5,6-tetrahydro-2H-[1,2′]bipyrazinyl-6′-yl]-phenyl}-dimethyl-amine] |  | IC50 [2, 6]: 1 to 10 µM |
| Cc1cc(C)cc(-c2cncc(N3CCN(c4ccccc4)CC3)n2)c1 [compound 192, 6′-(3,5-Dimethyl-phenyl)-4-phenyl-3,4,5,6-tetrahydro-2H-[1,2′]bipyrazinyl] |  | IC50 [2, 6]: 10 to 100 µM |
| Fc1ccccc1N1CCN(c2cncc(-c3ccc(C(F)(F)F)cc3)n2)CC1 [compound 197, 4-(2-Fluoro-phenyl)-6′-(4-trifluoromethyl-phenyl)-3,4,5,6-tetrahydro-2H-[1,2′]bipyrazinyl] |  | IC50 [2, 7]: 1 to 10 µM |

More lines, main results first:

| inhibition at 10 µM [1] [%] | SMILES | other results |
| --- | --- | --- |
| > 50 | COc1cc(Nc2cncc(-c3cccc(F)c3)n2)cc(OC)c1OC [Comp. 7, [6-(3-Fluoro-phenyl)-pyrazin-2-yl]-(3,4,5-trimethoxy-phenyl)-amine] | IC50 [2, 6]: 1 to 10 µM |
| > 50 | COc1ccc(-c2cncc(Nc3cccc(C#N)c3)n2)cc1 [compound 388] |  |
| > 50 | Oc1ccc(-c2cncc(Nc3ccc(F)c(Cl)c3)n2)cc1 [Comp. 11] | IC50 [2, 6]: < 1 µM; inhibition at 10 µM [4]: > 75% |
| > 75 | COc1cc(Nc2cncc(-c3ccc(N)cc3)n2)cc(OC)c1OC [compound 398] |  |
| > 50 | Cc1ccc(Nc2cncc(-c3ccc(F)cc3F)n2)cc1NS(C)(=O)=O [compound 410] |  |

Source: US20080194574A1, “Pyrazine Derivatives As Effective Compounds Against Infectious Diseases” (AXXIMA PHARMACEUTICALS AG, priority 2003, published 2008)
